Key:
penicillium expansum = assay: in vivo efficacy on Golden apples, preventive sprinkling then inoculation, fruit affected by rot counted; conditions: for Efficacy: Golden apples, 20° C., scored from three weeks; for control of the growth of the fungus (in words): hexanal 1000 ppm, imidazalil 250 ppm, alone or combined, apples
Experimental: This example provides an illustration of the efficacy of the composition according to the invention for combating penicillium expansum on apples. The trial was carried out in vivo.
The fungicidal compositions were used in solution at the doses detailed in Table 2. Apples of the Golden variety, untreated after harvest, were treated by sprinkling a fungicidal solution up to the run-of limit at the doses described in Table 2 (10 apples per product). Six hours later, the fruit was inoculated by sprinkling an aqueous suspension at 150000 spores/ml of […]. obtained from a pre-culture on PDA medium. This inoculation by sprinkling was carried out up to the run-off limit. The fruit was then stored in the dark at 20° C. and 100% relative humidity and the scores for the disease were measured three weeks later, for a period of two weeks. The numbers of fruit samples affected by rot were counted and, in comparison with the untreated control, a percentage efficacy was calculated using the formula
(§1) (Diameter of the Control−Diameter of the Trial/Diameter of the Control×100)

geotrichum candidum = assay: in vivo efficacy on valencia citrus, wound inoculation then treatment six hours later, fruit affected by rot counted; conditions: 5° C., 28 days
Experimental: This trial was carried out in vivo.
The fungicidal compositions were used in solution at the doses detailed in Table 3. Citrus of the valencia variety, untreated after harvest, was treated by sprinkling a fungicidal solution up to the run-off limit at the doses described in Table 3 of results (10 citrus per product). First inoculation by pre-made wounds was made with a suspension of 150000 spores/ml of geotrichum candidum, obtained from a pre-culture on PDA medium. Then six hours later, the product tested was applied up to the run-off limit. The fruit were then stored in the dark at 5° C. and 100% relative humidity and the scores for the disease were measured 28 days later.
The number of fruit samples affected by rot was counted and, in comparison with the untreated control, a percentage efficacy was calculated and show in table 3 below: […]

penicilium italicum = assay: in vitro efficacy on PDA medium in microtitre plate wells (radial growth of colony); type: cell-based; conditions: for control of the growth of the fungus (in words): 60 ppm each, alone or combined; for Radial growth of fungus / Efficacy: 60 ppm, PDA medium, 22° C.; for Radial growth of fungus: control 20 mm; for Efficacy: versus untreated control
Experimental: This example illustrates the efficacy of the composition according to the invention for controlling penicilium italicum. The trial was carried out in vitro.
The fungicidal compositions were used in the form of the formulated product incorporated in PDA medium in superfusion at doses in an amount of 6 μl of fungicidal solutions together with 1000 μl of PDA per well of 20 mm in diameter of a microtitre plate (four repeats/product). One day later, a microdrop of an aqueous suspension of penicilium italicum supplemented with 400 ppm of Tween 20 was brought to the surface of each well of the microtitre plate. The cultures were then incubated at 22° C. at 60% relative humidity under subdued light until the control culture (without fungicide) had covered the entire surface of the well. The diameter of each colony was then measured and, in comparison with untreated control, a percentage efficacy was calculated using the formula
as §1

In the case of `C=CCOC(Cn1ccnc1)c1ccc(Cl)cc1Cl` (stereo not drawn) [Imazalil, imazalil], the Efficacy (penicillium expansum; 250 ppm) was 28%, the “control of the growth of the fungus (in words)” value (“control” below) (penicillium expansum) was “did not control the growth of the fungus” and the Efficacy (geotrichum candidum; 500 ppm) was 0%.

In the case of `CCCCCC=O` [hexanal], the “control” value (penicilium italicum) was “poor results”, the “Radial growth of fungus” value (penicilium italicum) was 19 mm and the Efficacy (penicilium italicum) was 5%. For the same compound, the Efficacy (penicillium expansum; 1000 ppm) was 12%, the “control” value (penicillium expansum) was “did not control the growth of the fungus” and the Efficacy (geotrichum candidum; 1500 ppm) was 20%.

In the case of `CCCN(CCOc1c(Cl)cc(Cl)cc1Cl)C(=O)n1ccnc1` [procloraz, prochloraz], the “control” value (penicilium italicum) was “poor results”, the “Radial growth of fungus” value (penicilium italicum) was 18 mm and the Efficacy (penicilium italicum) was 10%.

Reference: patent publication US20130345053A1, “Fungicidal Composition” (ICA LABORATORIES CC, priority 2011, published 2013)
